One data set deals with T1, Sema3A (Mus musculus, UniProt O08665).
T1 construct: expressed in transfected cells; host or cells: COS7
T1 sequence (O08665 21-772): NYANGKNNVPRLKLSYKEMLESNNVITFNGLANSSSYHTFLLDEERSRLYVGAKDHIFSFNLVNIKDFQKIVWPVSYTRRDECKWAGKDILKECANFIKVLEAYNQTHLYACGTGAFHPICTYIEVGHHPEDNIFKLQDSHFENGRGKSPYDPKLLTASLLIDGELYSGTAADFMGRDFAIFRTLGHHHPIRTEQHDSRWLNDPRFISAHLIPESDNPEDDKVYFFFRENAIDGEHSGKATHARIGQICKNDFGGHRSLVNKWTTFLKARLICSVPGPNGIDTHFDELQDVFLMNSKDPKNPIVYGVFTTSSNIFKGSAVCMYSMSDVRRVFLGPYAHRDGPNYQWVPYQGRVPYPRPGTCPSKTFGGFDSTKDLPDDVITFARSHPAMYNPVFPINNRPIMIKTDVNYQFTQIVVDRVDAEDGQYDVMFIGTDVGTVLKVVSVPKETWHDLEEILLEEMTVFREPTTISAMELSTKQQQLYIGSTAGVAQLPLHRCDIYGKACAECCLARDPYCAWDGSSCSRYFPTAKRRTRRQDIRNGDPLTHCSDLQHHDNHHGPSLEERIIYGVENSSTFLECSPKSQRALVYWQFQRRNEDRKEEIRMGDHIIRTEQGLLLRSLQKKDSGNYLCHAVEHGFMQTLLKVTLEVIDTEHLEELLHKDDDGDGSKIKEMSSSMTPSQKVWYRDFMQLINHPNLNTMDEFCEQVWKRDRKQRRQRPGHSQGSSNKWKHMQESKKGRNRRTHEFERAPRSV
The data set is described as follows: Collagen gel co-culture: suppression of neurite outgrowth inhibitory action of Sema3A. The class given is cell-based. The arrangement: key to suppression of neurite outgrowth inhibitory activity of Sema3A, score / inhibition of neurite outgrowth-inhibitory action of Sema3A, score: neurites outgrew in a complete concentric circular shape just like for the control groups where Sema3A-non-expressing COS7 cells were used, it was scored +++ (a strong inhibitory effect for Sema3A); outgrowth was found almost in a concentric circular shape accompanied with a little suppression of the outgrowth toward the direction of Sema3A-expressing COS cells, it was scored ++; outgrowth toward the direction of Sema3A-expressing COS cells is fairly suppressed to present a crescent shape, it was scored +; outgrowth toward the direction of Sema3A-expressing COS cells was not found at all (no inhibitory effect for Sema3A), it was scored −. To be noted: for inhibition of neurite outgrowth-inhibitory action of Sema3A, score: Example 16; for suppression of neurite outgrowth inhibitory activity of Sema3A, score: Example 5. The procedure: Whether the object compounds (SPF-3059-1, M162, A721) have persistent inhibitory action to Sema3A was analyzed by the collagen gel co-culture method (Neuroprotocols 4, 116, 1994) using Sema3A-expressing COS7 cell clumps and 7- or 8-day-old chick embryo dorsal root ganglions. The Sema3A-expressing COS7 cell clumps were generated as follows. 1 μg of Sema3A-expression plasmid was introduced into COS7 cells (100000 cells/35 mm culture plate), which were cultured overnight, with the FuGENE6 transfection reagent (Roche). 2.5 hours after the starting of the transfection, the COS7 cells were collected by trypsinization and centrifugation, and re-suspended in a medium of 200 μl. 20 μl of the cell suspension was placed on the lid of the culture plate (inside) and the lid was turned over, and then the suspension was cultivated for 20 hours (hanging drop culture) (Cell 78, 425, 1994). When the culture was over, aggregated COS7 cells (clump) were collected and trimmed to a diameter of 0.5 mm. The Sema3A-expressing COS7 cell clump and the above-mentioned dorsal root ganglions were placed in parallel at a distance of 0.5 to 1 mm in a 0.2% collagen gel which was then cultivated in a medium containing the aforementioned compounds at various concentrations for 2 days at 37° C. under 5% CO2. Glutaraldehyde was quickly added therein to make the final concentration 1%. The cultures were then left for 1 hour at room temperature so that the tissues were fixed, and the neurite outgrowth was microscopically observed. The results are found in FIG. 4.
When a medium not containing a subject compound was used, neurites were unable to grow towards the COS7 cell clump with the high concentration of Sema3A and grew only to the opposite direction.
In a similar way as in Example 4, suppression of the neurite outgrowth inhibitory activity was analyzed for the compounds, SPF-3059-1, SPF-3059-2 and SPF-3059-5. When the neurites outgrew in a complete concentric circular shape just like for the control groups where Sema3A-non-expressing COS7 cells were used, it was scored +++ (a strong inhibitory effect for Sema3A). When the outgrowth was found almost in a concentric circular shape accompanied with a little suppression of the outgrowth toward the direction of Sema3A-expressing COS cells, it was scored ++. […] When the outgrowth toward the direction of Sema3A-expressing COS cells was not found at all (no inhibitory effect for Sema3A), it was scored −.

For data set [1], the target named is T2, mouse semaphorin 3A (Sema3A) (Mus musculus, UniProt O08665).
T2 sequence (O08665 21-772): T1 sequence (O08665 21-772)
Briefly: Suppression of growth cone collapse activity of Sema3A (chick embryo dorsal root ganglions). The class given is cell-based. To be noted: for IC50: E7 chick embryo dorsal root ganglions, 2 units/ml Sema3A added 1 hour after compound, concentration where collapse rate = (A+B)/2, read-out: IC50 of inhibition of the growth cone collapse activity of Sema3A (converted). On the procedure: A 96-well plate (Sumitomo Bakelite Co., ltd. ) pre-coated with polylysine was further coated with laminine (20 μg/ml of laminine, for 1 hour at room temperature). Each well was added with 100 μl of medium (F12 medium containing 10% bovine fetal serum, 20 ng/ml of NGF, 100 units/ml of penicillin and 100 μg/ml of streptomycin) which media were then inoculated with dorsal root nerve ganglions excised from E7 (Embryonic day 7) chick embryo and were cultured for 16 to 20 hours under 5% CO2 and at 37° C. Subsequently, the object compounds were added to media at various concentrations and 2 units/ml of mouse semaphorin 3A (Sema3A) was added after cultivating for 1 hour. The cultures were further incubated for another 1 hour. Glutaraldehyde was quickly added therein after said 1 hour to make the final concentration 1%. The cultures were then left for 15 minutes at room temperature so that the tissue sections were fixed, and collapse rates of the growth cones were microscopically observed. A well with no addition of Sema3A was made the control.
The longitudinal and lateral axes in the figures represent the collapse rate of growth cones and the concentration of compounds, respectively. ●▪▴ show the results when Sema3A was added after the addition of the compounds and ◯[…]Δ show those when Sema3A was not added. Further, IC50 (μg/ml) of the inhibitors were determined by the method comprising: calculating the collapse rate of growth cone (A) % of the negative controls (neither compounds nor Sema3a was added); subsequently calculate the collapse rate of growth cone (B) % of the positive controls (compounds were not added but Sema3a was added); and the concentration was chosen for each compound from the chart where the collapse rate of growth cone met (A+B)/2(%), which was made IC50 level. The followings are the results.

The next data set concerns COS7 cells. The data set is described as follows: Effect on cell proliferation (MTT). Format: cell-based. The note with it: Chlorocebus aethiops, COS-7, 48 h, two days, read-out: IC50, inhibitory rate for cell proliferation. On the procedure: COS7 cells were seeded onto a 96-well plate (medium 100 μl/well) at 10000 cells per well. At the same time, SPF-3059-1 of various concentrations was added and the cells were cultivated for two days in the presence of 5% CO2 at 37° C. Each well was then added with 10 μl of MTT solution at 5 mg/ml and cultured for another one hour. Subsequently, the culture supernatant was removed and formazan (an MTT derivative produced in viable cells) accumulated in the cells was dissolved by the addition of 50 μl DMSO and then the absorbance at 570 nm was measured to determine the proliferation of COS7 cells. […] The longitudinal and lateral axes in the figure show cell proliferation and the SPF-3059-1 concentration, respectively. Besides, the standard deviation (n=4) was added to each column.
The same effect on cell proliferation as in Example 9 was examined for the compounds, SPF-3059-1, SPF-3059-2 and SPF-3059-5. The wells with these compounds were served as samples, the wells with PBS were served as control, and the wells for which the experiment was carried out without adding the cells was served as blank. IC50 (μg/ml), the inhibitory rate for cell proliferation, was determined, which is calculated by the equation shown below. The inhibitory rate for cell proliferation (%)=(1−(absorbance of a sample well−absorbance of the blank well)/(absorbance of the control well−absorbance of the blank well))×100

Another data set can be described thus: Solubility. The class given is physicochemical.

Structures are written as SMILES. “Also recorded” adds a separate entry of the source.

In the case of `CC(=O)c1cc2c(=O)c3c(C(=O)O)c(O)c(O)cc3oc2c(C(C)=O)c1-c1coc2cc(O)cc(C(=O)O)c2c1=O` [SPF-3059-12], the “inhibition of neurite outgrowth-inhibitory action of Sema3A, score” value (shortened to “inhibition … score”) is listed as “+” against Sema3A (2 μg/ml compound), “+” against Sema3A (6 μg/ml compound) and “++” on Sema3A (20 μg/ml compound). The IC50 is 3.57 µM in data set [1] and above 100 mg/L in the data set on COS7 cells. The Solubility entry in “Solubility” (methanol, DMSO) is reported as “Soluble”; in the data set “Solubility” (water, hexane), “Insoluble”.
Regarding `CC(=O)c1cc2c(=O)c3c(C(=O)O)c(O)c(O)cc3oc2c(C(C)=O)c1-c1coc2cc(O)c(O)c(C(=O)O)c2c1=O` [SPF-3059-5], the “suppression of neurite outgrowth inhibitory activity of Sema3A, score” value on Sema3A (0.5 μg/ml compound) is “+”; at Sema3A (1.0 μg/ml compound), “++”; on Sema3A (2.0 μg/ml compound) it was “++”. Also, at Sema3A (2 μg/ml compound), the “inhibition … score” value is on record as “++”. In addition, at Sema3A (collagen gel co-culture, 2 days), the “persistent inhibitory action to Sema3A (neurite outgrowth toward Sema3A-expressing COS7 cell clump)” value is on record as “persistently inhibited the action of Sema3A”. Besides, the results for the IC50 (in data set [1]; in the data set with COS7 cells) were below 0.173 µM and above 300 mg/L, respectively. For the same compound, in data set [1] (chick embryo dorsal root ganglions), the “inhibition of growth cone collapse activity of Sema3A (in words)” value is “inhibit the growth cone collapse activities of Sema3A in a concentration-dependent manner; also recorded: potently inhibit semaphorin”.
Consider `COCc1c(-c2cc3c(=O)c4c(C(=O)O)c(O)c(O)cc4oc3c(C(C)=O)c2C)oc2cc(O)c(O)c(C(=O)O)c2c1=O` [SPF-3059-6], for which the “inhibition … score” value on Sema3A (2 μg/ml compound) is “++”; against Sema3A (6 μg/ml compound), “++”; against Sema3A (20 μg/ml compound), “+++”. Moreover, the IC50 in data set [1] was 0.169 µM; in the data set with COS7 cells it was above 100 mg/L. Further, the Solubility result in the data set “Solubility” (methanol, DMSO) is on record as “Soluble”; in “Solubility” (water, hexane), “Insoluble”.
For the compound `CC(=O)c1c(C)c(C(=O)C2COc3cc(O)c(O)c(C(=O)O)c3C2=O)cc2c(=O)c3c(C(=O)O)cc(O)cc3oc12` (centres unmarked) [SPF-3059-7], the “inhibition … score” value is on record as “+” against Sema3A (2 μg/ml compound), “+” against Sema3A (6 μg/ml compound) and “++” on Sema3A (20 μg/ml compound). Also, the IC50 in data set [1] was 1.78 µM; with COS7 cells it was above 100 mg/L. The Solubility entry is on record as “Soluble” in “Solubility” (methanol, DMSO) and “Insoluble” in “Solubility” (water, hexane).
Consider `CC(=O)c1c(C)c(C(=O)C2COc3cc(O)c(O)c(C(=O)O)c3C2=O)cc2c(=O)c3cc(O)c(O)cc3oc12` (centres unmarked) [SPF-3059-3], for which the “inhibition … score” value against Sema3A (2 μg/ml compound) was “+++”. Moreover, the results for the IC50 (in data set [1]; in the data set with COS7 cells) were 0.374 µM and above 100 mg/L, respectively. The Solubility entry in “Solubility” (methanol, DMSO) is “Soluble”; in the data set “Solubility” (water, hexane), “Insoluble”.
In the case of `CC(=O)c1cc2c(=O)c3c(C(=O)O)cc(O)cc3oc2c(C(C)=O)c1-c1coc2cc(O)c(O)c(C(=O)O)c2c1=O` [SPF-3059-4], the “inhibition … score” value is “−” against Sema3A (2 μg/ml compound), “+” at Sema3A (6 μg/ml compound) and “++” at Sema3A (20 μg/ml compound). For the same compound, the IC50 in data set [1] was 3.57 µM; in the data set on COS7 cells, above 100 mg/L. The Solubility entry is “Soluble” in the data set “Solubility” (methanol, DMSO) and “Insoluble” in the data set “Solubility” (water, hexane).

For the origin of these results see patent US7317038B2, “Nerve regeneration promoters containing semaphorin inhibitor as the active ingredient” (Dainippon Sumitomo Pharma Co., Ltd., priority 2000, dated 2008).
